A short description of one data set: LD50 (rat) i.p. As to conditions: in vivo, ip.
The subject of the next data set is Histamine broncho-spasm. As to the kind of experiment: Broncho-spasm antagonist activity (Konzett and Roessler technique), histamine. In kind it is in vivo, guinea pigs. Particulars: Cavia porcellus, iv, guinea pig, i.v., read-out: Broncho-spasm 50% approx. inhibiting dose, Histamine. The protocol: (§1) c) the experiments on the antagonist activity against the bronochospasm
(§2) were carried out on guinea pigs, according to the technique taught by
(§3) Konzett and Roessler (Arch. Exper. Pathol. Pharm., 71, (1940), 195).

The test system of another data set is Serotonine broncho-spasm. As to the kind of experiment: Broncho-spasm antagonist activity (Konzett and Roessler technique), serotonine. The format is in vivo, guinea pigs. As to conditions: Cavia porcellus, iv, guinea pig, i.v., read-out: Broncho-spasm 50% approx. inhibiting dose, Serotonine. The protocol: as §1, §2, §3
The test system of data set [1] is Acetylcholine broncho-spasm. As to the kind of experiment: Broncho-spasm antagonist activity (Konzett and Roessler technique), acetylcholine. In kind it is in vivo, guinea pigs. As to conditions: Cavia porcellus, iv, guinea pig, i.v., read-out: Broncho-spasm 50% approx. inhibiting dose, Acetylcholine. On the procedure:
as §1, §2, §3

Data set [2] in a line: Heated plate test (mouse), analgesic activity. The format is in vivo. The text has this: a) the data of analgesic activity are expressed as the variation % of the
stimulation threshold in the mouse;

Another data set has as its system kaolin induced oedema. As to the kind of experiment: Kaolin induced oedema (rat), anti-inflammatory activity. The format is in vivo, Wistar rat. The text has this: b) the data of anti-inflammatory activity are expressed as the volume
variation of the kaolin induced oedema in the Wistar rat;

[3] abbreviates: total dose 440 mg/kg per os (48 hours).
[4] abbreviates: total dose 310 mg/kg per os (48 hours).

Each structure is given as a SMILES string. Where only a bound is given, the exact number is not on record here.

`O=C1NCC2(CCN(CCOc3ccccc3)CC2)O1`: the LD50 in the data set “LD50 (rat) i.p.” came to 344 mg/kg. Besides, the ED50 (in the data set on Histamine broncho-spasm; in the data set with Serotonine broncho-spasm; in data set [1]) was over 0.5 mg/kg throughout. The “Heated plate test, % increase of threshold value” (shortened to “Heated plate test, % increase”) in data set [2] (100 mg/kg i.p.) was found to be 49%. The “Kaolin induced oedema, volume variation %” value in the data set on kaolin induced oedema (setting [3]) came out at 26.3%.
On to `O=C1NCC2(CCN(CCc3ccc(F)cc3)CC2)O1`, for which the LD50 in “LD50 (rat) i.p.” was 282 mg/kg. Further, the ED50 in the data set with Histamine broncho-spasm stood at 0.2 mg/kg; in the data set on Serotonine broncho-spasm it was 0.5 mg/kg; in data set [1], 2 mg/kg. In addition, in data set [2] (10 mg/kg i.p.), the “Heated plate test, % increase” value is 41.7%. For the same molecule, the “Kaolin induced oedema, volume variation %” value in the data set with kaolin induced oedema (total dose 70 mg/kg per os (48 hours)) came out at 19.4%.
In the data set “LD50 (rat) i.p.”, `O=C1NCC2(CCN(CCc3ccc4c(c3)OCO4)CC2)O1` returned an LD50 of 235 mg/kg. The ED50 with Histamine broncho-spasm is 0.2 mg/kg; in the data set on Serotonine broncho-spasm, over 2.5 mg/kg; in data set [1], over 2.5 mg/kg. In addition, the “Heated plate test, % increase” value in data set [2] (40 mg/kg i.p.) was 80%. Besides, in the data set with kaolin induced oedema (setting [4]), the “Kaolin induced oedema, volume variation %” value is 39.5%.
`O=C1NCC2(CCN(Cc3ccccc3)CC2)O1` showed an LD50 in “LD50 (rat) i.p.” of 319 mg/kg. The ED50 (in the data set with Histamine broncho-spasm; with Serotonine broncho-spasm; in data set [1]) was over 0.5 mg/kg throughout. The “Heated plate test, % increase” value in data set [2] (100 mg/kg i.p.) is recorded as 93%. In the data set on kaolin induced oedema (total dose 340 mg/kg per os (48 hours)), the “Kaolin induced oedema, volume variation %” value was found to be 9.4%.
In “LD50 (rat) i.p.”, `O=C1NCC2(CCN(C(c3ccccc3)c3ccccc3)CC2)O1` yielded an LD50 of 346 mg/kg. Further, the ED50 (in the data set on Histamine broncho-spasm; in the data set on Serotonine broncho-spasm; in data set [1]) was over 0.5 mg/kg in each case. In data set [2] (100 mg/kg i.p.), the “Heated plate test, % increase” value is 119%. In the data set with kaolin induced oedema (setting [3]), the “Kaolin induced oedema, volume variation %” value was determined as 4.6%.
For the molecule `O=C1NCC2(CCN(CCc3ccccc3)CC2)O1`, the LD50 in “LD50 (rat) i.p.” stood at 230 mg/kg. In addition, the ED50 with Histamine broncho-spasm worked out at 0.5 mg/kg; in the data set on Serotonine broncho-spasm it was 0.2 mg/kg; in data set [1] it was 2 mg/kg. Moreover, in data set [2] (25 mg/kg i.p.), the “Heated plate test, % increase” value came out at 63.4%. Further, the “Kaolin induced oedema, volume variation %” value in the data set with kaolin induced oedema (total dose 190 mg/kg per os (48 hours)) is 16.1%.
Regarding `O=C1NCC2(CCN(CCc3cccc(C(F)(F)F)c3)CC2)O1`, the LD50 in the data set “LD50 (rat) i.p.” is 344 mg/kg. Besides, the figures for the ED50 (in the data set on Histamine broncho-spasm; in the data set with Serotonine broncho-spasm; in data set [1]) were 0.5 mg/kg, over 0.5 mg/kg and over 0.5 mg/kg, respectively. Moreover, the “Heated plate test, % increase” value in data set [2] (50 mg/kg i.p.) came out at 45.6%. In the data set with kaolin induced oedema (setting [4]), the “Kaolin induced oedema, volume variation %” value is on record as 10%.

The values are drawn from patent US4028351A, “Method for the preparation of derivatives of spiro (4,5)-decane and derivatives thus obtained” (Buskine S.A., priority 1971, dated 1977).
